Common to all, as to type: cell-based
Series [1] is described as follows: Cytotoxicity against human HEK293-EBNA cells assessed as cell viability at 3.12 uM by MTS/PMS assay. To be noted: read-out: Activity.
The target of series [2] is Indoleamine 2,3-dioxygenase 1 (Homo sapiens) (UniProt P14902). As to the kind of experiment: Inhibition of human IDO1 expressed in HEK293-EBNA cells assessed as reduction in kynurenine formation using tryptophan as substrate at 25 uM incubated for 24 hrs by HPLC analysis relative to control.
Chain of Indoleamine 2,3-dioxygenase 1 (Homo sapiens) (P14902 whole entry, looked up): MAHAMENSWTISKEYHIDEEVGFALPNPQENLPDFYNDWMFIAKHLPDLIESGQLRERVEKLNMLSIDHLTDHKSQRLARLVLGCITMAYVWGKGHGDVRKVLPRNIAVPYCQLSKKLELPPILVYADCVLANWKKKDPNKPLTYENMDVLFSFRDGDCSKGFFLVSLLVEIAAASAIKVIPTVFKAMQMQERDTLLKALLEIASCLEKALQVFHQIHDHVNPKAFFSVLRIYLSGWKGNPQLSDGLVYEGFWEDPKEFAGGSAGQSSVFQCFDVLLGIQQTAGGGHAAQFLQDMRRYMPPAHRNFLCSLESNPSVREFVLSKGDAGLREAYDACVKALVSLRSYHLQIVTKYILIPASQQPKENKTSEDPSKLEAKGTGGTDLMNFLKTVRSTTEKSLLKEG
Series [3] shares this target. As to the kind of experiment: Inhibition of human IDO1 expressed in HEK293-EBNA cells assessed as reduction in kynurenine formation using tryptophan as substrate at 12.5 uM incubated for 24 hrs by HPLC analysis relative to control.
A short description of series [4]: Cytotoxicity against human HEK293-EBNA cells assessed as cell viability at 12.5 uM by MTS/PMS assay. To be noted: read-out: Activity.
Series [5] has as its target Indoleamine 2,3-dioxygenase 1 (Homo sapiens) (UniProt P14902). Briefly: Inhibition of human IDO1 expressed in HEK293-EBNA assessed as reduction in kynurenine formation using tryptophan as substrate at 3.12 uM incubated for 24 hrs by HPLC analysis relative to control.
Series [6] deals with Tryptophan 2,3-dioxygenase (Homo sapiens) (UniProt P48775). As to the kind of experiment: Inhibition of human TDO expressed in HEK293-EBNA cells assessed as reduction in kynurenine formation using tryptophan as substrate at 12.5 uM incubated for 24 hrs by HPLC analysis relative to control.
Chain of Tryptophan 2,3-dioxygenase (Homo sapiens) (P48775 whole entry, looked up): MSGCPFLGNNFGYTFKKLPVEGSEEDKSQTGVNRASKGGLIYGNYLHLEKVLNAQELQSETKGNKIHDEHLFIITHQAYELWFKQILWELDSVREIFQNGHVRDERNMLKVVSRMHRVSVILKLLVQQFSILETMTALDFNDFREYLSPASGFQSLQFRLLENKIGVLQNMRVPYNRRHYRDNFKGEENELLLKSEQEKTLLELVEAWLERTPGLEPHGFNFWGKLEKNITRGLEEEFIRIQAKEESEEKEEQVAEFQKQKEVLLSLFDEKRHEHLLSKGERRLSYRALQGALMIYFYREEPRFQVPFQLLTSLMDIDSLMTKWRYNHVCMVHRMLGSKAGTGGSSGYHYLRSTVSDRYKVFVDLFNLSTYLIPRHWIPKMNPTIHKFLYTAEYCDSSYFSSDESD
Series [7] has the same target. As to the kind of experiment: Inhibition of human TDO expressed in HEK293-EBNA cells assessed as reduction in kynurenine formation using tryptophan as substrate at 6.25 uM incubated for 24 hrs by HPLC analysis relative to control.
Series [8] is described as follows: Cytotoxicity against human HEK293-EBNA cells assessed as cell viability at 25 uM by MTS/PMS assay. To be noted: read-out: Activity.
The nature of series [9]: Cytotoxicity against human HEK293-EBNA cells assessed as cell viability at 6.25 uM by MTS/PMS assay. To be noted: read-out: Activity.
In series [10] the target is Indoleamine 2,3-dioxygenase 1 (Homo sapiens) (UniProt P14902). As to the kind of experiment: Inhibition of human IDO1 expressed in HEK293-EBNA cells assessed as reduction in kynurenine formation using tryptophan as substrate at 6.25 uM incubated for 24 hrs by HPLC analysis relative to control.
Series [11] concerns the target Tryptophan 2,3-dioxygenase (Homo sapiens) (UniProt P48775). Briefly: Inhibition of human TDO expressed in HEK293-EBNA cells assessed as reduction in kynurenine formation using tryptophan as substrate at 25 uM incubated for 24 hrs by HPLC analysis relative to control.
The target is the same in series [12]. Briefly: Inhibition of human TDO expressed in HEK293-EBNA cells assessed as reduction in kynurenine formation using tryptophan as substrate at 3.12 uM incubated for 24 hrs by HPLC analysis relative to control.

Data on 15 compounds can be found in ChEMBL document CHEMBL4819048, “IDO1 and TDO inhibitory evaluation of analogues of the marine pyrroloiminoquinone alkaloids: Wakayin and Tsitsikammamines” (Bioorg Med Chem Lett, 2021).

What is called inhibition is the change of the read-out against control, counted positive when it falls. As for `Cc1ccc(S(=O)(=O)n2cc3c4c2C(=O)c2[nH]nc(N5C(=O)C(O)c6ccccc65)c2C4=NCC3)cc1` (configuration not stated), the viability at 3.12 µM in series [1] stood at 104%. Also, the inhibition in [2] was 14%; in [3] it was 1%; in series [5] it was 1%; in series [6], 6%; in series [7], 5%; in series [10] it was 3%. Further, the figures for the inhibition in series [11] and in series [12] were 27% and -7%, respectively. For the same compound, in [4], the viability at 12.5 µM amounted to 84%. In series [8], the viability at 25 µM was 31%. Besides, the viability at 6.25 µM in series [9] was 107%.

As to `Cc1ccc(S(=O)(=O)n2ccc3c2C(=O)c2[nH]c(C(=O)c4ccccc4)c(C(=O)c4ccccc4)c2C3=O)cc1`, in series [1], the viability at 3.12 µM came out at 99%. The inhibition in series [2] was 61%; in series [3], 62%; in series [5], 52%; in series [6] it was 55%; in series [7] it was 27%; in [10], 58%. Further, the inhibition in series [11] is 28%; in series [12], 15%. Besides, the viability at 12.5 µM in [4] is 102%. Moreover, in series [8], the viability at 25 µM was 111%. The viability at 6.25 µM in [9] was found to be 125%.

With `Cc1ccc(S(=O)(=O)n2cc3c4c2C(=O)c2n[nH]cc2C4=NCC3)cc1`, the viability at 3.12 µM in series [1] worked out at 92%. Moreover, the inhibition in [2] came to 6%; in series [3] it was 9%; in [5], 10%; in [6], 13%; in series [7], 14%; in series [10], 9%. In addition, the results for the inhibition in series [11] and in [12] were 7% and 12%, respectively. In addition, the viability at 12.5 µM in [4] is 97%. Besides, the viability at 25 µM in series [8] was 91%. The viability at 6.25 µM in series [9] came to 91%.

Regarding `Cc1ccc(S(=O)(=O)n2cc3c4c2C(=O)c2[nH]nc(-c5ccccc5)c2C4=NCC3)cc1`, in [1], the viability at 3.12 µM stood at 91%. In addition, the inhibition in [2] amounted to 18%; in [3], 16%; in [5] it was 10%; in [6] it was 2%; in [7], 5%; in series [10], 12%. Further, the inhibition in series [11] was -10%; in [12] it was 5%. The viability at 12.5 µM in [4] stood at 79%. For the same compound, the viability at 25 µM in series [8] came out at 78%. In series [9], the viability at 6.25 µM was found to be 95%.

In the case of `Cc1ccc(S(=O)(=O)n2ccc3c2C(=O)c2[nH]c(C(=O)c4c[nH]c5ccccc45)c(C(=O)c4c[nH]c5ccccc45)c2C3=O)cc1`, in series [1], the viability at 3.12 µM is 87%. The inhibition is 24% in series [2]; 25% in series [3]; 16% in [5]; -2% in [6]; 1% in series [7]; 22% in series [10]. In addition, the inhibition is -9% in series [11] and -1% in series [12]. Moreover, the viability at 12.5 µM in [4] turned out to be 82%. In [8], the viability at 25 µM stood at 75%. The viability at 6.25 µM in [9] is 81%.

As for `Cc1ccc(S(=O)(=O)n2ccc3c2C(=O)c2[nH]cc4c2C3=NCC4)cc1`, the viability at 3.12 µM in [1] came to 107%. The inhibition is -3% in series [2]; -4% in series [3]; 0% in series [5]; -6% in series [6]; -7% in series [7]; -3% in series [10]. In addition, the inhibition in series [11] is 3%; in series [12], -7%. Besides, the viability at 12.5 µM in series [4] was 110%. The viability at 25 µM in [8] was found to be 115%. Also, the viability at 6.25 µM in series [9] was 98%.

Take `O=C1c2c[nH]nc2C2=NCCc3c[nH]c1c32`: the viability at 3.12 µM in series [1] is 93%. For the same compound, the inhibition was -1% in series [2]; 0% in series [3]; 2% in [5]; 8% in [6]; 8% in [7]; 2% in series [10]. Besides, the figures for the inhibition in [11] and in [12] were 9% and 6%, respectively. Moreover, in series [4], the viability at 12.5 µM worked out at 91%. In addition, the viability at 25 µM in series [8] came out at 90%. For the same compound, the viability at 6.25 µM in series [9] worked out at 92%.

With `O=C1c2[nH]cc3c2C(=NCC3)c2c(-c3ccccc3)n[nH]c21`, the viability at 3.12 µM in series [1] is 93%. The inhibition in [2] was found to be 5%; in series [3], 5%; in [5], 4%; in [6] it was 6%; in series [7] it was 5%; in series [10], 4%. Moreover, the inhibition in [11] was found to be 5%; in [12], 3%. In addition, the viability at 12.5 µM in series [4] was 94%. Also, the viability at 25 µM in series [8] came out at 84%. Further, the viability at 6.25 µM in series [9] came out at 93%.

For the compound `Cc1ccc(S(=O)(=O)n2cc3c4c2C(=O)c2c(-c5ccccc5)n[nH]c2C4=NCC3)cc1`, in series [1], the viability at 3.12 µM was determined as 91%. For the same compound, the inhibition was 23% in series [2]; 22% in series [3]; 14% in series [5]; 18% in series [6]; 13% in [7]; 19% in series [10]. Further, the inhibition in series [11] is 21%; in [12] it was 10%. Besides, the viability at 12.5 µM in series [4] was found to be 123%. In series [8], the viability at 25 µM turned out to be 96%. Also, in series [9], the viability at 6.25 µM came out at 126%.

Turning to `Cc1ccc(S(=O)(=O)n2ccc3c2C(=O)c2c4c(cn2S(=O)(=O)c2ccc(C)cc2)CCN=C34)cc1`, in [1], the viability at 3.12 µM was 87%. The viability at 12.5 µM in series [4] amounted to 85%. Moreover, the viability at 25 µM in series [8] came to 67%. In addition, in series [9], the viability at 6.25 µM was 88%.

For the compound `Cc1ccc(S(=O)(=O)n2ccc3c2C(=O)c2c(c(-c4c[nH]c5ccccc45)cn2C)C3=O)cc1`, the viability at 3.12 µM in [1] worked out at 98%. The inhibition in series [2] came out at 27%; in [3] it was 21%; in series [5], 8%; in series [6] it was 0%; in series [7], 3%; in [10], 12%. Moreover, the inhibition in [11] was -3%; in series [12], 2%. Also, the viability at 12.5 µM in series [4] amounted to 96%. For the same compound, the viability at 25 µM in series [8] came out at 88%. Moreover, the viability at 6.25 µM in series [9] was 96%.

Take `Cc1ccc(S(=O)(=O)n2ccc3c2C(=O)C(NCCc2c[nH]c4ccccc24)=CC3=O)cc1`: the viability at 3.12 µM in [1] was 98%. The inhibition in [2] is 11%; in series [3], 13%; in series [5] it was 2%; in series [6], 0%; in [7], -3%; in series [10], 9%. Further, the inhibition in [11] was 0%; in [12], -8%. The viability at 12.5 µM in [4] was found to be 99%. The viability at 25 µM in series [8] worked out at 84%. For the same compound, the viability at 6.25 µM in series [9] was determined as 98%.

On to `Cc1ccc(S(=O)(=O)n2ccc3c2C(=O)c2c(-c4c[nH]c5ccccc45)cn(C)c2C3=O)cc1`, for which, in series [1], the viability at 3.12 µM worked out at 100%. Further, the inhibition in [2] is 28%; in series [3], 26%; in series [5], 12%; in [6], -1%; in series [7], 2%; in series [10], 20%. In addition, the inhibition in series [11] was -8%; in [12], 2%. The viability at 12.5 µM in [4] was 97%. Further, the viability at 25 µM in series [8] amounted to 95%. The viability at 6.25 µM in series [9] was determined as 98%.

In the case of `Cc1ccc(S(=O)(=O)n2ccc3c2C(=O)C=C(NCCc2c[nH]c4ccccc24)C3=O)cc1`, in series [1], the viability at 3.12 µM is 75%. For the same compound, the inhibition is 39% in [2]; 38% in [3]; 23% in [5]; 31% in [6]; 12% in series [7]; 28% in series [10]. The inhibition was 67% in series [11] and 5% in series [12]. Also, in series [4], the viability at 12.5 µM was found to be 56%. Moreover, the viability at 25 µM in [8] came to 26%. Further, the viability at 6.25 µM in series [9] was 69%.

`Cc1ccc(S(=O)(=O)n2cc3c4c2C(=O)c2c(cnn2C)C4=NCC3)cc1`: in [1], the viability at 3.12 µM turned out to be 93%. For the same compound, the inhibition in series [2] came to 36%; in [3], 23%; in [5] it was 11%; in series [6], 21%; in [7] it was 18%; in series [10], 16%. The figures for the inhibition in series [11] and in series [12] were 35% and 3%, respectively. Also, the viability at 12.5 µM in series [4] is 77%. Further, the viability at 25 µM in [8] is 78%. Also, in series [9], the viability at 6.25 µM was 89%.
